Measured values published in patent US9833497B2, “Human originated EGF domain proteins and use of the same” (CHENGDU SOURCEBIO LIMITED-LIABILITY COMPANY, priority 2013, dated 2017).

Tests used:
Assay type in all cases: cell-based
E. coli DH5α = experiment: Antibacterial activity: MIC and growth curve against E. coli DH5α in 96-well plate; conditions: minimal inhibitory concentration against E. coli DH5α; 96-well plate, 5×10^5 CFU/mL, 37° C., judged after 8 h
Procedure, shortened: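 Log-phase bacteria (OD600 ~0.5) resuspended in LB at 5×10^5 CFU/mL, exposed to recombinant protein at 50, 25, 12.5 μg/mL final in triplicate, 37 °C shaking at 175 rpm. OD600 read every 30 min; MIC is lowest concentration showing no growth.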

E. coli BL21 = experiment: MIC against Gram-negative bacteria: E. coli BL21; conditions: for MIC against E. coli BL21 / MIC E. coli BL21: 5×10^5 CFU/mL
Procedure, shortened: (§1)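 The recombinant human-originated EGF domain proteins were serially diluted two-fold against bacteria at 5×10^5 CFU/mL in LB medium. After shaken incubation at 37° C, the lowest concentration with no bacterial growth was recorded as the MIC.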

Pseudomonas aeruginosa = experiment: MIC against Gram-negative bacteria: Pseudomonas aeruginosa; conditions: for MIC against P. aeruginosa: Pseudomonas aeruginosa; for MIC against P. aeruginosa / MIC P. aeruginosa: 5×10^5 CFU/mL
Procedure, shortened: as §1

Klebsiella pneumonia = experiment: MIC against Gram-negative bacteria: Klebsiella pneumonia; conditions: for MIC against K. pneumonia: Klebsiella pneumonia; for MIC against K. pneumonia / MIC K. pneumonia: 5×10^5 CFU/mL
Procedure, shortened: as §1

Enterobacter cloacae = experiment: MIC against Gram-negative bacteria: Enterobacter cloacae; conditions: for MIC against E. cloacae: Enterobacter cloacae; for MIC against E. cloacae / MIC E. cloacae: 5×10^5 CFU/mL
Procedure, shortened: as §1

Aeromonas hydrophila = experiment: MIC against Gram-negative bacteria: Aeromonas hydrophila; conditions: for MIC against A. hydrophila: Aeromonas hydrophila; for MIC against A. hydrophila / MIC A. hydrophila: 5×10^5 CFU/mL
Procedure, shortened: as §1

Citrobacter diversus = experiment: MIC against Gram-negative bacteria: Citrobacter diversus; conditions: for MIC against C. diversus: Citrobacter diversus; for MIC against C. diversus / MIC C. diversus: 5×10^5 CFU/mL
Procedure, shortened: as §1

Moraxella catarrhalis = experiment: MIC against Gram-negative bacteria: Moraxella catarrhalis; conditions: for MIC against M. catarrhalis: Moraxella catarrhalis; for MIC against M. catarrhalis / MIC M. catarrhalis: 5×10^5 CFU/mL
Procedure, shortened: as §1

Proteus mirabilis = experiment: MIC against Gram-negative bacteria: Proteus mirabilis; conditions: for MIC against P. mirabilis: Proteus mirabilis; for MIC against P. mirabilis / MIC P. mirabilis: 5×10^5 CFU/mL
Procedure, shortened: as §1

Proteus vulgaris = experiment: MIC against Gram-negative bacteria: Proteus vulgaris; conditions: for MIC against P. vulgaris: Proteus vulgaris; for MIC against P. vulgaris / MIC P. vulgaris: 5×10^5 CFU/mL
Procedure, shortened: as §1

Serratia marcescens = experiment: MIC against Gram-negative bacteria: Serratia marcescens; conditions: for MIC against S. marcescens: Serratia marcescens; for MIC against S. marcescens / MIC S. marcescens: 5×10^5 CFU/mL
Procedure, shortened: as §1

[1] = E. coli BL21, 10 h cultivation at 37° C.
[2] = 10 h cultivation at 37° C., two-fold serial dilution

PRT1281 (DLCLSSPCQNQGTCHNDPLEVYRCACPSGYKGRDCE; listed as Homo sapiens)
25 µg/mL: MIC against P. aeruginosa (Pseudomonas aeruginosa; 96-well plate, 37° C., 10 h) | MIC against E. cloacae (Enterobacter cloacae; 96-well plate, 37° C., 10 h)
12.5 µg/mL: MIC against E. coli BL21 (E. coli BL21; E. coli BL21, 96-well plate, 37° C., 10 h) | MIC against A. hydrophila (Aeromonas hydrophila; 96-well plate, 37° C., 10 h) | MIC against M. catarrhalis (Moraxella catarrhalis; 96-well plate, 37° C., 10 h) | MIC against P. vulgaris (Proteus vulgaris; 96-well plate, 37° C., 10 h)
50 µg/mL: MIC (E. coli DH5α) | MIC against K. pneumonia (Klebsiella pneumonia; 96-well plate, 37° C., 10 h) | MIC against C. diversus (Citrobacter diversus; 96-well plate, 37° C., 10 h) | MIC against P. mirabilis (Proteus mirabilis; 96-well plate, 37° C., 10 h) | MIC against S. marcescens (Serratia marcescens; 96-well plate, 37° C., 10 h)

PRT1381 (GMRSCPRGCSQRGRCENGRCVCNPGYTGEDC; listed as Homo sapiens)
25 µg/mL: MIC against E. coli BL21 (E. coli BL21; [1]) | MIC against K. pneumonia (Klebsiella pneumonia; 10 h cultivation at 37° C.) | MIC against C. diversus (Citrobacter diversus; 10 h cultivation at 37° C.) | MIC against P. mirabilis (Proteus mirabilis; 10 h cultivation at 37° C.) | MIC against S. marcescens (Serratia marcescens; 10 h cultivation at 37° C.)
12.5 µg/mL: MIC (E. coli DH5α) | MIC against E. cloacae (Enterobacter cloacae; 10 h cultivation at 37° C.) | MIC against M. catarrhalis (Moraxella catarrhalis; 10 h cultivation at 37° C.)
50 µg/mL: MIC against P. aeruginosa (Pseudomonas aeruginosa; 10 h cultivation at 37° C.) | MIC against A. hydrophila (Aeromonas hydrophila; 10 h cultivation at 37° C.) | MIC against P. vulgaris (Proteus vulgaris; 10 h cultivation at 37° C.)

PRT1072 (TQQVCAGYCANNSTCTVNQGNQPQCRCLPGFLGDRCQ; listed as Homo sapiens)
50 µg/mL: MIC (E. coli DH5α) | MIC E. cloacae (Enterobacter cloacae; [2]) | MIC C. diversus (Citrobacter diversus; [2])
12.5 µg/mL: MIC E. coli BL21 (E. coli BL21; [2]) | MIC P. aeruginosa (Pseudomonas aeruginosa; [2]) | MIC A. hydrophila (Aeromonas hydrophila; [2]) | MIC M. catarrhalis (Moraxella catarrhalis; [2]) | MIC P. mirabilis (Proteus mirabilis; [2]) | MIC P. vulgaris (Proteus vulgaris; [2]) | MIC S. marcescens (Serratia marcescens; [2])
25 µg/mL: MIC K. pneumonia (Klebsiella pneumonia; [2])

PRT897 (DPNPCLSTPCKNAGTCHVVDRRGVADYACSCALGFSGPLCL; listed as Homo sapiens)
12.5 µg/mL: MIC (Pseudomonas aeruginosa; P. aeruginosa, 10 h cultivation at 37° C.) | MIC (Enterobacter cloacae; E. cloacae, 10 h cultivation at 37° C.) | MIC (Citrobacter diversus; C. diversus, 10 h cultivation at 37° C.) | MIC (Proteus vulgaris; P. vulgaris, 10 h cultivation at 37° C.)
25 µg/mL: MIC (E. coli BL21; [1]) | MIC (Proteus mirabilis; P. mirabilis, 10 h cultivation at 37° C.) | MIC (Serratia marcescens; S. marcescens, 10 h cultivation at 37° C.)
50 µg/mL: MIC (E. coli DH5α) | MIC (Klebsiella pneumonia; K. pneumonia, 10 h cultivation at 37° C.) | MIC (Aeromonas hydrophila; A. hydrophila, 10 h cultivation at 37° C.) | MIC (Moraxella catarrhalis; M. catarrhalis, 10 h cultivation at 37° C.)

PRT635 (DINECLEDKSVCQRGDCINTAGSYDCTCPDGFQLDDNKTCQ; listed as Homo sapiens)
12.5 µg/mL: MIC (E. coli DH5α) | MIC P. aeruginosa (Pseudomonas aeruginosa; 96-well plate, 37° C., 10 h) | MIC E. cloacae (Enterobacter cloacae; 96-well plate, 37° C., 10 h) | MIC C. diversus (Citrobacter diversus; 96-well plate, 37° C., 10 h) | MIC M. catarrhalis (Moraxella catarrhalis; 96-well plate, 37° C., 10 h) | MIC P. vulgaris (Proteus vulgaris; 96-well plate, 37° C., 10 h)
25 µg/mL: MIC E. coli BL21 (E. coli BL21; 96-well plate, 37° C., 10 h) | MIC K. pneumonia (Klebsiella pneumonia; 96-well plate, 37° C., 10 h) | MIC A. hydrophila (Aeromonas hydrophila; 96-well plate, 37° C., 10 h) | MIC P. mirabilis (Proteus mirabilis; 96-well plate, 37° C., 10 h) | MIC S. marcescens (Serratia marcescens; 96-well plate, 37° C., 10 h)
